Reference: the supplement of paper PMC4862054
Blank lines part the entries; values can stand above or below the molecule they belong to.

Experiments:
Conditions in all cases: 72 h
BT-549 [1] = tested on: BT-549
Summary of the method: (§1)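 Breast cancer cell lines (20 µl suspension) were seeded into 384-well plates holding compound at 5 concentrations in 10-fold steps over a compound-specific 10,000-fold range, then incubated 72 h. Cell death was read first by CellTox Green fluorescence (485/520 nm), then viability by CellTiter-Glo luminescence after 10 min at room temperature. Each plate was normalised to 0.1 % DMSO and a positive kill control. EC50 was fitted from the dose-response curves and censored at the top concentration.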

CAL-120 [2] = tested on: CAL-120
Summary of the method: as §1

CAL-148 [3] = tested on: CAL-148
Summary of the method: as §1

CAL-51 [4] = tested on: CAL-51
Summary of the method: as §1

CAL-85-1 [5] = tested on: CAL-85-1
Summary of the method: as §1

DU-4475 [6] = tested on: DU-4475
Summary of the method: as §1

HCC1143 [7] = tested on: HCC1143
Summary of the method: as §1

HCC1599 [8] = tested on: HCC1599
Summary of the method: as §1

HCC1937 [9] = tested on: HCC1937
Summary of the method: as §1

Hs578T [10] = tested on: Hs578T
Summary of the method: as §1

MCF-10A [11] = tested on: MCF-10A
Summary of the method: as §1

MDA-MB-231 [12] = tested on: MDA-MB-231
Summary of the method: as §1

MDA-MB-436 [13] = tested on: MDA-MB-436
Summary of the method: as §1

MDA-MB-453 [14] = tested on: MDA-MB-453
Summary of the method: as §1

MFM-223 [15] = tested on: MFM-223
Summary of the method: as §1

SK-BR-3 [16] = tested on: SK-BR-3
Summary of the method: as §1

CAL-148 [17] = tested on: CAL-148; remark: listed apart in the source
Summary of the method: (§2)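 Each 384-well plate was pre-loaded with compound dissolved in 5 µl medium, received breast cancer cells in 20 µl suspension, and was incubated 72 h. A 2.5 µl addition of CellTiter-Blue for 2 h at 37 °C was followed by a fluorescence read at 560/590 nm. Data were normalised per plate to vehicle and a positive kill control and checked by Z'-factor. EC50 was fitted from the percent-inhibition dose-response curve, censored at the highest concentration, excluding rows with a drug sensitivity score of zero.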

CAL-51 [18] = tested on: CAL-51; remark: listed apart in the source
Summary of the method: as §2

CAL-85-1 [19] = tested on: CAL-85-1; remark: listed apart in the source
Summary of the method: as §2

DU-4475 [20] = tested on: DU-4475; remark: listed apart in the source
Summary of the method: as §2

HDQ-P1 [21] = tested on: HDQ-P1
Summary of the method: as §2

MDA-MB-453 [22] = tested on: MDA-MB-453; remark: listed apart in the source
Summary of the method: as §2

BT-474 = tested on: BT-474
Summary of the method: as §2

BT-549 [23] = tested on: BT-549; remark: listed apart in the source
Summary of the method: as §2

CAL-120 [24] = tested on: CAL-120; remark: listed apart in the source
Summary of the method: as §2

HCC1143 [25] = tested on: HCC1143; remark: listed apart in the source
Summary of the method: as §2

HCC1599 [26] = tested on: HCC1599; remark: listed apart in the source
Summary of the method: as §2

HCC1937 [27] = tested on: HCC1937; remark: listed apart in the source
Summary of the method: as §2

Hs578T [28] = tested on: Hs578T; remark: listed apart in the source
Summary of the method: as §2

MDA-MB-231 [29] = tested on: MDA-MB-231; remark: listed apart in the source
Summary of the method: as §2

MDA-MB-436 [30] = tested on: MDA-MB-436; remark: listed apart in the source
Summary of the method: as §2

MDA-MB-468 [31] = tested on: MDA-MB-468
Summary of the method: as §2

MFM-223 [32] = tested on: MFM-223; remark: listed apart in the source
Summary of the method: as §2

SK-BR-3 [33] = tested on: SK-BR-3; remark: listed apart in the source
Summary of the method: as §2

BT-549 [34] = tested on: BT-549; remark: listed apart in the source
Experimental: (§3)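 Drug sensitivity and resistance testing (DSRT) of breast cancer cell lines in 384-well plates, 5 concentrations in 10-fold dilutions over a compound-specific 10,000-fold range. After 72 h, cytotoxicity was read by CellTox Green fluorescence and viability by CellTiter-Glo luminescence (multiplexed), normalised to DMSO and benzethonium chloride controls. EC50 is the inflection point of the fitted dose-response curve (bottom asymptote free, so it can be relative for partial curves) and is censored at the highest tested concentration. Rows with DSS 0 (no meaningful response) were excluded.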

CAL-51 [35] = tested on: CAL-51; remark: listed apart in the source
Experimental: as §3

CAL-85-1 [36] = tested on: CAL-85-1; remark: listed apart in the source
Experimental: as §3

HDQ-P1 [37] = tested on: HDQ-P1; remark: listed apart in the source
Experimental: as §3

Hs578T [38] = tested on: Hs578T; remark: listed apart in the source
Experimental: as §3

MCF-10A [39] = tested on: MCF-10A; remark: listed apart in the source
Experimental: as §3

MDA-MB-231 [40] = tested on: MDA-MB-231; remark: listed apart in the source
Experimental: as §3

MDA-MB-468 [41] = tested on: MDA-MB-468; remark: listed apart in the source
Experimental: as §3

MFM-223 [42] = tested on: MFM-223; remark: listed apart in the source
Experimental: as §3

DU-4475 [43] = tested on: DU-4475; remark: listed apart in the source
Experimental: as §3

EC50, CellTiter-Glo (BT-549 [1]): 0.0419 µM
EC50, CellTiter-Glo (HCC1143 [7]): 0.0465 µM
EC50, CellTiter-Glo (HCC1599 [8]): 0.233 µM
EC50, CellTiter-Glo (HCC1937 [9]): 0.0878 µM
EC50, CellTiter-Glo (MDA-MB-231 [12]): 0.0541 µM
EC50, CellTiter-Glo (MDA-MB-436 [13]): 0.0468 µM
EC50, CellTiter-Glo (MDA-MB-453 [14]): 0.0411 µM
EC50, CellTiter-Glo (SK-BR-3 [16]): 0.0614 µM
EC50, CellTiter-Blue viability (MDA-MB-453 [22]): 0.125 µM
EC50, CellTiter-Blue viability (BT-474): 0.168 µM
EC50, CellTiter-Blue viability (BT-549 [23]): 0.249 µM
EC50, CellTiter-Blue viability (HCC1143 [25]): 0.206 µM
EC50, CellTiter-Blue viability (HCC1599 [26]): 0.15 µM
EC50, CellTiter-Blue viability (HCC1937 [27]): 0.0797 µM
EC50, CellTiter-Blue viability (MDA-MB-231 [29]): 0.133 µM
EC50, CellTiter-Blue viability (MDA-MB-436 [30]): 0.376 µM
EC50, CellTiter-Blue viability (MDA-MB-468 [31]): 0.353 µM
EC50, CellTiter-Blue viability (SK-BR-3 [33]): 0.123 µM
SMILES: CC(C)(C)c1cnc(CSc2cnc(NC(=O)C3CCNCC3)s2)o1 [SNS-032]
EC50, CellTiter-Glo (CAL-120 [2]): 0.102 µM
EC50, CellTiter-Glo (CAL-148 [3]): 0.0332 µM
EC50, CellTiter-Glo (CAL-51 [4]): 0.0171 µM
EC50, CellTiter-Glo (CAL-85-1 [5]): 0.0628 µM
EC50, CellTiter-Glo (DU-4475 [6]): 0.203 µM
EC50, CellTiter-Glo (Hs578T [10]): 0.101 µM
EC50, CellTiter-Glo (MCF-10A [11]): 0.157 µM
EC50, CellTiter-Glo (MFM-223 [15]): 0.137 µM
EC50, CellTiter-Blue viability (CAL-148 [17]): 0.128 µM
EC50, CellTiter-Blue viability (CAL-51 [18]): 0.571 µM
EC50, CellTiter-Blue viability (CAL-85-1 [19]): 0.128 µM
EC50, CellTiter-Blue viability (DU-4475 [20]): 0.203 µM
EC50, CellTiter-Blue viability (HDQ-P1 [21]): 0.11 µM
EC50, CellTiter-Blue viability (CAL-120 [24]): 0.16 µM
EC50, CellTiter-Blue viability (Hs578T [28]): 0.101 µM
EC50, CellTiter-Blue viability (MFM-223 [32]): 0.169 µM
EC50, CellTox Green (BT-549 [34]): 0.255 µM
EC50, CellTox Green (CAL-51 [35]): 0.0111 µM
EC50, CellTox Green (CAL-85-1 [36]): 0.0412 µM
EC50, CellTox Green (HDQ-P1 [37]): 0.0322 µM
EC50, CellTox Green (Hs578T [38]): 0.0858 µM
EC50, CellTox Green (MCF-10A [39]): 0.172 µM
EC50, CellTox Green (MDA-MB-231 [40]): 0.0309 µM
EC50, CellTox Green (MDA-MB-468 [41]): 7.58 µM
EC50, CellTox Green (MFM-223 [42]): 0.142 µM

EC50, CellTiter-Glo (HCC1599 [8]): 1.67 µM
EC50, CellTiter-Glo (MDA-MB-231 [12]): 0.313 µM
EC50, CellTiter-Blue viability (HCC1143 [25]): 0.023 µM
EC50, CellTiter-Blue viability (HCC1599 [26]): 0.283 µM
EC50, CellTiter-Blue viability (HCC1937 [27]): 1.07 µM
EC50, CellTiter-Blue viability (MDA-MB-231 [29]): 0.214 µM
SMILES: Cn1cnc2c(F)c(Nc3ccc(Br)cc3Cl)c(C(=O)NOCCO)cc21 [Selumetinib]
EC50, CellTiter-Glo (CAL-120 [2]): 9.28 µM
EC50, CellTiter-Glo (DU-4475 [6]): 0.21 µM
EC50, CellTiter-Glo (MCF-10A [11]): 0.0204 µM
EC50, CellTiter-Blue viability (CAL-85-1 [19]): 0.563 µM
EC50, CellTiter-Blue viability (DU-4475 [20]): 0.0708 µM
EC50, CellTiter-Blue viability (HDQ-P1 [21]): 0.159 µM
EC50, CellTiter-Blue viability (CAL-120 [24]): 7.5 µM
EC50, CellTiter-Blue viability (Hs578T [28]): > 10 µM
EC50, CellTox Green (DU-4475 [43]): 0.172 µM
EC50, CellTox Green (HDQ-P1 [37]): 0.324 µM
EC50, CellTox Green (MDA-MB-231 [40]): 0.724 µM
EC50, CellTox Green (MDA-MB-468 [41]): 2.46 µM

EC50, CellTiter-Glo (BT-549 [1]): 9.55 µM
EC50, CellTiter-Glo (HCC1143 [7]): 4.32 µM
EC50, CellTiter-Glo (HCC1599 [8]): 3.45 µM
EC50, CellTiter-Glo (HCC1937 [9]): 0.729 µM
EC50, CellTiter-Glo (MDA-MB-231 [12]): 0.491 µM
EC50, CellTiter-Glo (MDA-MB-436 [13]): 4.73 µM
EC50, CellTiter-Glo (MDA-MB-453 [14]): 4.69 µM
EC50, CellTiter-Blue viability (BT-549 [23]): 9.86 µM
EC50, CellTiter-Blue viability (HCC1937 [27]): 6.66 µM
EC50, CellTiter-Blue viability (MDA-MB-231 [29]): 0.212 µM
EC50, CellTiter-Blue viability (MDA-MB-436 [30]): 0.667 µM
EC50, CellTiter-Blue viability (MDA-MB-468 [31]): 0.748 µM
EC50, CellTiter-Blue viability (SK-BR-3 [33]): 9.94 µM
SMILES: Nc1nc2[nH]cnc2c(=S)[nH]1 [Thioguanine]
EC50, CellTiter-Glo (CAL-120 [2]): 1.32 µM
EC50, CellTiter-Glo (CAL-148 [3]): 1.72 µM
EC50, CellTiter-Glo (CAL-51 [4]): 2.31 µM
EC50, CellTiter-Glo (CAL-85-1 [5]): 0.841 µM
EC50, CellTiter-Glo (DU-4475 [6]): 4.33 µM
EC50, CellTiter-Glo (Hs578T [10]): 1.35 µM
EC50, CellTiter-Blue viability (CAL-148 [17]): 6.6 µM
EC50, CellTiter-Blue viability (CAL-51 [18]): > 10 µM
EC50, CellTiter-Blue viability (CAL-85-1 [19]): 1.35 µM
EC50, CellTiter-Blue viability (CAL-120 [24]): 1.14 µM
EC50, CellTiter-Blue viability (Hs578T [28]): 6.56 µM
